In PubChem BioAssay (NCI):
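Following 48 hours of exposure in 96-well plates, responses at five concentrations were used to interpolate endpoints linearly. Here, GI50 denotes the concentration required for 50% inhibition of growth. TGI: total growth inhibition.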

Key:
Test in all cases: NCI tumour cell line growth inhibition, 48 h
MDA-MB-231 breast = test system: MDA-MB-231 breast
HS 578T breast = test system: HS 578T breast
MALME-3M melanoma = test system: MALME-3M melanoma
HCT-116 colon = test system: HCT-116 colon
T-47D breast = test system: T-47D breast
UACC-62 melanoma = test system: UACC-62 melanoma
EKVX NSCLC = test system: EKVX NSCLC
BT-549 breast = test system: BT-549 breast
KM12 colon = test system: KM12 colon
UO-31 renal = test system: UO-31 renal
OVCAR-8 ovarian = test system: OVCAR-8 ovarian
HOP-62 NSCLC = test system: HOP-62 NSCLC
DU-145 prostate = test system: DU-145 prostate
CCRF-CEM leukemia = test system: CCRF-CEM leukemia
MDA-MB-435 = test system: MDA-MB-435
HOP-92 NSCLC = test system: HOP-92 NSCLC
OVCAR-3 ovarian = test system: OVCAR-3 ovarian
CAKI-1 renal = test system: CAKI-1 renal
SF-268 CNS = test system: SF-268 CNS
TK-10 renal = test system: TK-10 renal
NCI-H226 lung = test system: NCI-H226 lung
SNB-19 CNS = test system: SNB-19 CNS
MCF7 breast = test system: MCF7 breast
786-0 renal = test system: 786-0 renal
IGROV1 ovarian = test system: IGROV1 ovarian
SN12C renal = test system: SN12C renal
OVCAR-4 ovarian = test system: OVCAR-4 ovarian
A498 renal = test system: A498 renal
SK-MEL-28 melanoma = test system: SK-MEL-28 melanoma

CS(=O)(=O)Nc1cccc(-c2ccc3ncnc(Nc4ccc(F)c(Cl)c4)c3c2)c1
GI50 (MDA-MB-231 breast): 1400 nM | TGI (MDA-MB-231 breast): 3450 nM | GI50 (HS 578T breast): 1850 nM | TGI (HS 578T breast): 5550 nM | GI50 (MALME-3M melanoma): 1970 nM | TGI (MALME-3M melanoma): 5100 nM | GI50 (HCT-116 colon): 1590 nM | TGI (HCT-116 colon): 3290 nM | GI50 (T-47D breast): 731 nM | TGI (T-47D breast): 5170 nM | GI50 (UACC-62 melanoma): 1840 nM | TGI (UACC-62 melanoma): 3830 nM | GI50 (EKVX NSCLC): 129 nM | TGI (EKVX NSCLC): 3720 nM | GI50 (BT-549 breast): 1810 nM | TGI (BT-549 breast): 4540 nM | GI50 (KM12 colon): 2500 nM | TGI (KM12 colon): 8300 nM | GI50 (UO-31 renal): 706 nM | TGI (UO-31 renal): 3100 nM | GI50 (OVCAR-8 ovarian): 2230 nM | TGI (OVCAR-8 ovarian): 8530 nM | GI50 (HOP-62 NSCLC): 1810 nM | TGI (HOP-62 NSCLC): 4200 nM | GI50 (DU-145 prostate): 1290 nM | TGI (DU-145 prostate): 13800 nM | GI50 (CCRF-CEM leukemia): 3050 nM | TGI (CCRF-CEM leukemia): > 100000 nM | GI50 (MDA-MB-435): 1910 nM | TGI (MDA-MB-435): 4750 nM | GI50 (HOP-92 NSCLC): 1720 nM | TGI (HOP-92 NSCLC): 5250 nM | GI50 (OVCAR-3 ovarian): 1600 nM | TGI (OVCAR-3 ovarian): 6270 nM | GI50 (CAKI-1 renal): 447 nM | TGI (CAKI-1 renal): 19200 nM | GI50 (SF-268 CNS): 1970 nM | TGI (SF-268 CNS): 9140 nM | GI50 (TK-10 renal): 80.1 nM | TGI (TK-10 renal): 2260 nM | GI50 (NCI-H226 lung): 1800 nM | TGI (NCI-H226 lung): 5330 nM | GI50 (SNB-19 CNS): 1550 nM | TGI (SNB-19 CNS): 4780 nM | GI50 (MCF7 breast): 1560 nM | TGI (MCF7 breast): 6930 nM | GI50 (786-0 renal): 1710 nM | TGI (786-0 renal): 3760 nM | GI50 (IGROV1 ovarian): 1090 nM | TGI (IGROV1 ovarian): 5410 nM | GI50 (SN12C renal): 1930 nM | TGI (SN12C renal): 6590 nM | GI50 (OVCAR-4 ovarian): 2420 nM | TGI (OVCAR-4 ovarian): > 30600 nM | GI50 (A498 renal): 118 nM | TGI (A498 renal): 2270 nM | GI50 (SK-MEL-28 melanoma): 2280 nM
